According to PMC7565988, “Insight into the Anticancer Activity of Copper(II) 5-Methylenetrimethylammonium-Thiosemicarbazonates and Their Interaction with Organic Cation Transporters” (Biomolecules, 2020):
Like-named read-outs stand apart in the source and are kept apart here.

Columns and labels:
[1] = Distribution coefficient (D7.4), shake-flask method, n-octanol/buffered aqueous solution pH 7.40; format: physicochemical; settings: n-octanol/PBS pH 7.4, 25 °C, read-out: logD7.4 (proligand)
Method: Distribution coefficients (D7.4) values were determined by the traditional shake-flask method in n-octanol/buffered aqueous solution at pH 7.40 (20 mM phosphate buffer saline (PBS)) at 25.0 ± 0.2 °C as described previously.

[2] = system: Colo 320 multidrug resistant colonic adenocarcinoma cells (overexpressing ABCB1 (MDR1)-LRP); assay: MTT cytotoxicity (24 h) / antiproliferation (72 h) assay; format: cell-based; settings: Homo sapiens, read-out: Colo320 IC50
Method: (§1) Human doxorubicin-sensitive Colo 205 (ATCC-CCL-222) and multidrug resistant Colo 320 (overexpressing ABCB1 (MDR1)-LRP (ATCC-CCL-220.1)) colonic adenocarcinoma cell lines were purchased from LGC Promochem, Teddington, UK. The cells were cultured in RPMI 1640 medium supplemented with 10% heat-inactivated fetal bovine serum, 2 mM L-glutamine, 1 mM Na-pyruvate and 100 mM Hepes. The cell lines were incubated at 37 °C, in a 5% CO2, 95% air atmosphere. The semi-adherent human colon cancer cells were detached with Trypsin-Versene (EDTA) solution for 5 min at 37 °C.
(§2) In the study non-cancerous human embryonic lung fibroblast MRC-5, human colonic adenocarcinoma cell line (doxorubicin-sensitive Colo 205, multidrug resistant Colo 320) and neuroblastoma cell line SH-SY5Y were used to determine the effect of compounds on cell growth. The effects of increasing concentrations of compounds on cell growth were tested in 96-well flat-bottomed microtiter plates. The compounds were diluted in a volume of 100 μL of medium.
(§3) In case of the colonic adenocarcinoma cells, the two-fold serial dilutions of compounds were prepared in 100 μL of RPMI 1640, horizontally. The semi-adherent colonic adenocarcinoma cells were treated with Trypsin–Versene (EDTA) solution. The cells were adjusted to a density of 2 × 10^4 cells in 100 μL of RPMI 1640 medium, and were added to each well, with the exception of the medium control wells. The final volume of the wells containing compounds and cells was 200 μL.
(§4) The culture plates were incubated at 37 °C for 24 h; at the end of the incubation period, 20 μL of MTT (thiazolyl blue tetrazolium bromide, Sigma) solution (from a stock solution of 5 mg/mL) were added to each well. After incubation at 37 °C for 4 h, 100 μL of sodium dodecyl sulfate (SDS) (Sigma) solution (10% in 0.01 M HCI) were added to each well and the plates were further incubated at 37 °C overnight. Cell growth was determined by measuring the optical density (OD) at 540/630 nm with Multiscan EX ELISA reader (Thermo Labsystems, Cheshire, WA, USA). […] Curves were fitted by GraphPad Prism software using the sigmoidal dose-response model (comparing variable and fixed slopes).
(§5) The method is similar to the one described in the assay for cytotoxic effect. […] The culture plates were incubated at 37 °C for 72 h and after the incubation time, the plates were stained with MTT according to the previous experimental protocol described for the cytotoxicity assay.

[3] = Proton dissociation constants (pKa) of proligands by UV/Vis spectrophotometric titration; format: physicochemical; settings: for % HL at pH 7.4: fraction of proligand in neutral zwitterionic HL form at pH 7.4, computed with pKa; for pKa: proligand, phenolic OH, I = 0.1 M (KCl), t = 25 °C, water, read-out: pKa (H2L+)
Method: (§6) An Agilent Carry 8454 diode array spectrophotometer was used to record the UV/Vis spectra in the interval 200–800 nm. The path length was 1 cm. Proton dissociation constants (pKa) of the TSC ligands, the overall stability constants of the copper(II) monoligand complexes (logβ) and the individual spectra of the species in the various protonation states and stoichiometry were calculated by the computer program PSEQUAD [44]. Spectrophotometric titrations were performed on samples containing the proligands at 50 μM concentration by a KOH solution in the presence of 0.1 M KCl at 25.0 ± 0.1 °C in the pH range from 2 to 11.5, and the metal-to-ligand ratio was 1:0, 1:1 and 1:2. An Orion 710A pH-meter equipped with a Metrohm combined electrode (type 6.0234.100) and a Metrohm 665 Dosimat burette were used for the titrations. […] The average water ionisation constant (pKw) is 13.76 ± 0.05 in water. Argon was also passed over the solutions during the titrations. Measurements were also carried out in the range of ca. 1.0–2.0 by preparing individual samples in which KCl was partially or completely replaced by HCl and pH values (between 1 and 2) were calculated from the strong acid content.

[4] = Solution stability of copper(II) complexes, UV/Vis spectrophotometric titration; format: physicochemical; settings: for logβ [Cu(HL)]2+ / logβ [CuL]+: copper(II) complex of the proligand; for logβ [Cu(HL)]2+ / logβ [CuL]+ / logβ [CuLH−1]: I = 0.1 M (KCl), t = 25 °C; for logKderived [CuLH−1]+: logβ [CuL]+ − pKa (H2L+); for logβ [CuLH−1]: mixed hydroxido [CuL(OH)] species; for pCu (−log[Cu(II)]): pH = 7.4, cCu(II) = 10 μM, cL = 10 μM
Method: as §6

[5] = Redox reaction of copper(II) complexes with GSH, anaerobic UV/Vis kinetics; format: physicochemical; settings: copper(II) complex (1–4) of the proligand, pH = 7.4, ccomplex = 25 μM, cGSH = 1.25 mM
Method: The redox reactions of the copper(II) complexes with GSH and AA were studied at 25.0 ± 0.1 °C on Hewlett Packard 8452A diode array spectrophotometer using a special, tightly closed tandem cuvette (Hellma Tandem Cell, 238-QS). The reactants were separated until the reaction was triggered. Both isolated pockets of the cuvette were completely deoxygenated by bubbling a stream of argon for 10–15 min before mixing the reactants. Spectra were recorded before and then immediately after the mixing, and changes were followed until no further absorbance change was observed. One of the isolated pockets contained the reducing agent and its concentration was 1250 μM and the other contained 25 μM copper(II) complex. The pH of all the solutions was adjusted to 7.40 by 50 mM HEPES buffer and an ionic strength of 0.1 M (KCl) was applied. The stock solutions of the reducing agents and the complexes were freshly prepared every day. During the calculations, the absorbance (A) − time (t) curves were fitted and analysed at the λmax of the complex. (A0 − Afinal) × e^(−a×t) + Afinal equation was used where A0, Afinal and a parameters were refined and accepted at the minimal value of the weighted sum of squared residuals (difference between the measured and calculated absorbance values) at the given wavelength. Then observed rate constants (kobs) of the redox reaction were obtained from the data points of the simulated absorbance–time curves as the slope of the ln(A/A0) versus t plots.

[6] = system: Colo 205 doxorubicin-sensitive colonic adenocarcinoma cells; assay: MTT cytotoxicity (24 h) / antiproliferation (72 h) assay; format: cell-based, human; settings: Homo sapiens, read-out: Colo205 IC50
Method: as §1, §2, §3, §4, §5

**Q.** Which results are given for `CNC(=S)N/N=C/c1cc(C[N+](C)(C)C)ccc1O` [[H2L^Me]Cl]?
**A.** logD [1]: -0.39 ± 0.01; IC50 ([2]; 24 h exposure): > 100 µM; IC50 ([2]; 72 h exposure): 74.4 ± 3.85 µM; % HL at pH 7.4 [3]: 42%; pKa [3]: 7.54 ± 0.01; logβ [Cu(HL)]2+ [4]: 11.73 ± 0.02; logβ [CuL]+ [4]: 7.76 ± 0.02; logKderived [CuLH−1]+ [4]: 0.22; logβ [CuLH−1] [4]: −1.48 ± 0.08; pCu (−log[Cu(II)]) [4]: 11.79; kobs, observed rate constant of the redox reaction with GSH [5]: 0.073 ± 0.002 min⁻¹; IC50 ([6]; COLO 205, 24 h exposure): > 100 µM; IC50 ([6]; COLO 205, 72 h exposure): > 100 µM

**Q.** For `C[N+](C)(C)Cc1ccc(O)c(/C=N/NC(=S)Nc2ccccc2)c1` [[H2L^Ph]Cl], which logD [1] is on record?
**A.** 0.68 ± 0.04

**Q.** And the IC50 ([2]; 24 h exposure)?
**A.** > 100 µM

**Q.** What about the IC50 ([2]; 72 h exposure) of the same compound?
**A.** 95.8 ± 1.58 µM

**Q.** And the “% HL at pH 7.4” value [3]?
**A.** 70%

**Q.** What about the pKa [3] of the same compound?
**A.** 7.03 ± 0.01

**Q.** And the “logβ [Cu(HL)]2+” value [4]?
**A.** 11.26 ± 0.02

**Q.** And the “logβ [CuL]+” value [4]?
**A.** 8.55 ± 0.02

**Q.** And the “logKderived [CuLH−1]+” value [4]?
**A.** 1.52

**Q.** What about the “logβ [CuLH−1]” value [4] of the same compound?
**A.** −1.31 ± 0.05

**Q.** What about the “pCu (−log[Cu(II)])” value [4] of the same compound?
**A.** 12.80

**Q.** What about the “kobs, observed rate constant of the redox reaction with GSH” value (from here on “kobs, observed rate constant”) [5] of the same compound?
**A.** 0.025 ± 0.005 min⁻¹

**Q.** And the IC50 ([6]; COLO 205, 24 h exposure)?
**A.** > 100 µM

**Q.** And the IC50 ([6]; COLO 205, 72 h exposure)?
**A.** > 100 µM

**Q.** With `CCNC(=S)N/N=C/c1cc(C[N+](C)(C)C)ccc1O` [[H2L^Et]Cl] as the compound, how does the logD [1] read?
**A.** 0.06 ± 0.04

**Q.** What about the IC50 ([2]; 24 h exposure) of the same compound?
**A.** 63.8 ± 3.92 µM

**Q.** And the IC50 ([2]; 72 h exposure)?
**A.** 53.3 ± 2.44 µM

**Q.** And the “% HL at pH 7.4” value [3]?
**A.** 55%

**Q.** And the pKa [3]?
**A.** 7.31 ± 0.01

**Q.** What about the “logβ [Cu(HL)]2+” value [4] of the same compound?
**A.** 11.66 ± 0.03

**Q.** What about the “logβ [CuL]+” value [4] of the same compound?
**A.** 7.67 ± 0.03

**Q.** What about the “logKderived [CuLH−1]+” value [4] of the same compound?
**A.** 0.36

**Q.** What about the “logβ [CuLH−1]” value [4] of the same compound?
**A.** −1.65 ± 0.09

**Q.** And the “pCu (−log[Cu(II)])” value [4]?
**A.** 11.82

**Q.** And the “kobs, observed rate constant” value [5]?
**A.** 0.058 ± 0.001 min⁻¹

**Q.** What about the IC50 ([6]; COLO 205, 24 h exposure) of the same compound?
**A.** > 100 µM

**Q.** And the IC50 ([6]; COLO 205, 72 h exposure)?
**A.** > 100 µM

**Q.** Which logD [1] does the source give for `C[N+](C)(C)Cc1ccc(O)c(/C=N/NC(N)=S)c1` [[H2L^H]Cl] here?
**A.** -0.84 ± 0.03

**Q.** What about the IC50 ([2]; 24 h exposure) of the same compound?
**A.** > 100 µM

**Q.** What about the IC50 ([2]; 72 h exposure) of the same compound?
**A.** 88.8 ± 5.32 µM

**Q.** And the “% HL at pH 7.4” value [3]?
**A.** 47%

**Q.** What about the pKa [3] of the same compound?
**A.** 7.46 ± 0.01

**Q.** What about the “logβ [Cu(HL)]2+” value [4] of the same compound?
**A.** 12.00 ± 0.01

**Q.** What about the “logβ [CuL]+” value [4] of the same compound?
**A.** 8.14 ± 0.01

**Q.** What about the “logKderived [CuLH−1]+” value [4] of the same compound?
**A.** 0.68

**Q.** What about the “logβ [CuLH−1]” value [4] of the same compound?
**A.** −1.66 ± 0.02

**Q.** What about the “pCu (−log[Cu(II)])” value [4] of the same compound?
**A.** 12.21

**Q.** And the “kobs, observed rate constant” value [5]?
**A.** 0.080 ± 0.008 min⁻¹

**Q.** What about the IC50 ([6]; COLO 205, 24 h exposure) of the same compound?
**A.** > 100 µM

**Q.** And the IC50 ([6]; COLO 205, 72 h exposure)?
**A.** > 100 µM
